Tests used:
[1] = system: SNU-16 xenograft; assay: Subcutaneous xenograft model; format: in vivo, NOD/SCID mice
Description: (§1) NOD/SCID mice (6-week-old, weight 18–20 g, Beijing HJF bioscience) were used in this experiment and maintained in a specific-pathogen-free (SPF) condition facility. SNU-16 Cells were resuspended in PBS mixed with Matrigel (1:1) and adjust the density to 1×10^7 per mice (100 μL). The cell suspensions were inoculated subcutaneously on the right flank of the mice. When the mean tumor volume reached approximately 200 mm^3, the mice were divided into four groups (five mice each group): i. Vehicle group, ii. RK-019 15 mg/kg group, iii. RK-019 30 mg/kg group, and iv. RK-019 45 mg/kg group. RK-019 was dissolved in same formula as the in vivo PK study. RK-019 was administrated once per day by oral gavage for 21 days. Tumor volumes were measured three times per week. The tumor volume was measured by a caliper and calculated according to the following formula: Tumor volume=Major axis×Miner axis^2/2.
(§2) At the end of administration, the mice were executed euthanasia, then tumors, blood, and organs were extracted. The complete blood count (CBC), serum phosphorus analysis, and blood biochemical analysis were completed by West China Frontier Pharma Tech (Chengdu, China). The pathological section and IHC stanning was completed by Servicebio (Wuhan, China). The tumor growth inhibition (TGI) values were calculated with the following formula: TGI=(1−Tn−T0/Cn−C0)×100%.
Tn and T0 represent average tumor volume before treatment and that of day n after treatment in the treatment group. Cn and C0 represent average tumor volume before treatment and that of day n after treatment in the vehicle group. In this study, n is 21st day.

[2] = Preliminary toxicity in the xenograft mice model; format: in vivo, NOD/SCID mice
Description: as §1, §2

[3] = system: FGFR2 phosphorylation and downstream proteins in KATO III cells; assay: Western blot of FGFR signal proteins; format: cell-based; conditions: 24 h
Description: (§3) The cells treated with RK-019 at indicated concentration for 24 h were harvested and lysed in 1× RIPA buffer (20e188, MilliporeSigma, Burlington, MA, United States), which contained protease inhibitor cocktail (B14001, Bimake, Houston, TX, United States) and phosphatase inhibitor cocktail (B15001, Bimake), for 30 min and equalized by concentration of the total protein before loading. Using sodium dodecyl sulphate - polyacrylamide gel electrophoresis (SDS-PAGE) to separate the protein sample and transfer to PVDF membranes (ISEQ00010, MilliporeSigma). The membranes were incubated with relevant primary antibody and corresponding HRP-labeled secondary antibody. Then, chemiluminescence was used to detect target bands. ImageJ software were used to make the gradation analysis.
(§4) In western blot, results analysis of relative phosphorylation quantification level, data were firstly calculated according to the following formular: Protein Relative phosphorylation data = Gp/Gup. Gp means the gradation level of target phosphorylation protein band and Gup means the gradation level of target total protein band. Then, the relative phosphorylation level can be calculated by the following formular: Protein Relative expression level = Pt/Pc ×100%. Pt means the relative phosphorylation data or target group and Pc means the relative phosphorylation data of control group.

[4] = system: FGFR2 phosphorylation and downstream proteins in SNU-16 cells; assay: Western blot of FGFR signal proteins; format: cell-based
Description: as §3, §4

[5] = system: KATO III cells; assay: Transwell migration and invasion assay; format: cell-based; conditions: 100 nM, 24 h
Description: (§5) In the migration assay, 1×10^5 cells were resuspended in a serum-free medium, then added into the upper chamber, meanwhile the medium containing 10% FBS was added at the bottom with 100 nM RK-019. After 24 h incubation, the migration cells on the filters were fixed with 4% paraformldehyde and washed with PBS, then stained with crystal violet solution for 20 min. In the invasion assay, the upper surface of the transwell was coated with Matrigel (356234, Corning) for 30 min at 37°C until Matrigel was solidified. 1×10^5 cells were resuspended in a serum-free medium, then added into the upper chamber, meanwhile the medium containing 10% FBS was added at the bottom with 100 nM RK-019.After 24 h , the invasion cells on the filters were hatched and fixed, then stained with crystal violet.

[6] = system: SNU-16 cells; assay: Transwell migration and invasion assay; format: cell-based; conditions: SNU-16, 100 nM, 24 h
Description: as §5

[7] = system: KATO III cells; assay: Edu staining assay; format: cell-based; conditions: 100 nM, 24 h
Description: (§6) For Edu staining assay, 1×10^5 cells were seeded in 24-well plates. RK-019 and DMSO were treated as soon as the cells seeded into the plates. After 24 h, the cells were incubated with the medium contained 10 µM Edu for 2 h. After that, the cells were collected and fixated to slide, and then stained with the Cell-Light EdU Apollo488 In Vitro Kit (C10310, Ribobio, Guangzhou, China). After staining, the samples were photographed and analyzed by the ImageJ software (v1.53a, Wayne Rasband, United States).

[8] = system: SNU-16 cells; assay: Edu staining assay; format: cell-based; conditions: SNU-16, 100 nM, 24 h
Description: as §6

COc1cc(OC)cc(N(CCN[C@H](C)CO)c2ccc3ncc(-c4cnn(C)c4)c(=O)n3c2)c1 [RK-019, (R)-7-((3,5-dimethoxyphenyl) (2-((1-hydroxypropan-2-yl)amino)ethyl)amino)-3-(1-methyl-1H-pyrazol-4-yl)-4H-pyrido [1,2-a]pyrimidin-4-one]
TGI ([1]; 15 mg/kg oral once a day, 21 days): 34.3%
TGI ([1]; 30 mg/kg oral once a day, 21 days): 85.9%
TGI ([1]; 45 mg/kg oral once a day, 21 days): 83.5%
tumor weight ([1]; RK-019-treated group vs vehicle group, 21 days): significant decrease
number of cleaved-caspase 3-positive cells (IHC of tumor tissue) ([1]; after 21 days treatment): increased significantly
number of p-FGFR2-positive and Ki67-positive cells (IHC of tumor tissue) ([1]; after 21 days treatment): decreased
body weight change ([2]; during 21 days treatment, 15-45 mg/kg oral): no significant body weight change
hematopoietic toxicity ([2]; end of 21 days treatment): absent
pathological changes in harvested organs (H&E) ([2]; end of 21 days treatment): no pathological changes
protein expression level of phosphorylated FGFR2 T653/T654 ([3]; KATO III, 0.1, 1, 5, 10, and 100 nM): decreased
AKT and Erk phosphorylation levels ([3]; KATO III): decreased
FRS2 and PLCγ phosphorylation levels ([3]; KATO III): significantly decreased
protein expression level of phosphorylated FGFR2 T653/T654 ([4]; SNU-16, 0.1, 1, 5, 10, and 100 nM, 24 h): decreased
AKT and Erk phosphorylation levels ([4]; SNU-16, 24 h): decreased
FRS2 and PLCγ phosphorylation levels ([4]; SNU-16, 24 h): significantly decreased
migration and invasion ability [5]: significantly suppress
migration and invasion ability [6]: significantly suppress
number of Edu-positive stained cells [7]: significantly decreased
number of Edu-positive stained cells [8]: significantly decreased

Source: article PMC9532703, “A novel small molecule RK-019 inhibits FGFR2-amplification gastric cancer cell proliferation and induces apoptosis in vitro and in vivo” (Frontiers in Pharmacology, 2022)
